Common to all, as to format: functional
Assay [1] relates to Staphylococcus aureus. The experiment in a line: Antibacterial activity against methicillin-sensitive Staphylococcus aureus 04-4 after 18 to 24 hrs.
In assay [2] the test system is Staphylococcus aureus. As to the kind of experiment: Antibacterial activity against methicillin-resistant Staphylococcus aureus 05-3 after 18 to 24 hrs.
In assay [3] the test system is Enterococcus faecalis. As to the kind of experiment: Antibacterial activity against Enterococcus faecalis 03-4 after 18 to 24 hrs.
Assay [4] has as its system Escherichia coli. The experiment in a line: Antibacterial activity against Escherichia coli ATCC 25922 after 18 to 24 hrs.
The test system of assay [5] is Pseudomonas aeruginosa. The experiment in a line: Antibacterial activity against Pseudomonas aeruginosa […] after 18 to 24 hrs.
Assay [6] concerns Klebsiella pneumoniae. The experiment in a line: Antibacterial activity against Klebsiella pneumoniae 05-4 after 18 to 24 hrs.
Assay [7] has as its system Streptococcus pneumoniae. The experiment in a line: Antibacterial activity against Streptococcus pneumoniae 05-9 after 18 to 24 hrs.

Molecules are shown by their SMILES. Converted amounts (≈) assume the structure as drawn. Bounds are passed on as bounds.

With `CC(=O)NC[C@H]1CN(c2ccc(N3CCOCC3)c(F)c2)C(=O)O1` [LINEZOLID], the figures for the MIC in assay [1], in assay [2] and in assay [3] were 0.5 µg/mL (≈ 1.48 µM), 1 µg/mL (≈ 2.96 µM) and 0.125 µg/mL (≈ 0.371 µM), respectively.

With `CO/N=C1\CCN(c2nc3c(cc2F)c(=O)c(C(=O)O)cn3C2CC2)CC1N` (stereo not drawn), the MIC amounted to 8 µg/mL (≈ 20.5 µM) in assay [4]; 4 µg/mL (≈ 10.3 µM) in assay [5]; 2 µg/mL (≈ 5.14 µM) in assay [6]; 4 µg/mL (≈ 10.3 µM) in assay [1]; 4 µg/mL (≈ 10.3 µM) in assay [7]; 16 µg/mL (≈ 41.1 µM) in assay [2]. This compound gave an MIC in assay [3] of 8 µg/mL (≈ 20.5 µM).

On to `CCO/N=C1\CCN(c2nc3c(cc2F)c(=O)c(C(=O)O)cn3C2CC2)CC1NC` (stereo not drawn), for which the MIC was 8 µg/mL (≈ 19.2 µM) in assay [4]; 1 µg/mL (≈ 2.4 µM) in assay [5]; 16 µg/mL (≈ 38.3 µM) in assay [6]; under 0.001 µg/mL in assay [1]; under 0.001 µg/mL in assay [7]; 4 µg/mL (≈ 9.58 µM) in assay [2]. The MIC in assay [3] was under 0.001 µg/mL.

In the case of `CN(C)C1CN(c2nc3c(cc2F)c(=O)c(C(=O)O)cn3C2CC2)CC/C1=N\OCc1ccccc1` (stereo not drawn), the MIC in assay [4] was 16 µg/mL (≈ 32.4 µM); in assay [5], 2 µg/mL (≈ 4.05 µM); in assay [6] it was 16 µg/mL (≈ 32.4 µM); in assay [1], 0.015 µg/mL (≈ 0.0304 µM); in assay [7], 0.015 µg/mL (≈ 0.0304 µM); in assay [2], 4 µg/mL (≈ 8.1 µM). The MIC in assay [3] worked out at 0.06 µg/mL (≈ 0.122 µM).

In assay [7], `CN[C@H](CC(C)C)C(=O)N[C@H]1C(=O)N[C@@H](CC(N)=O)C(=O)N[C@H]2C(=O)N[C@H]3C(=O)N[C@H](C(=O)N[C@H](C(=O)O)c4cc(O)cc(O)c4-c4cc3ccc4O)[C@H](O)c3ccc(c(Cl)c3)Oc3cc2cc(c3O[C@@H]2O[C@H](CO)[C@@H](O)[C@H](O)[C@H]2O[C@H]2C[C@](C)(N)[C@H](O)[C@H](C)O2)Oc2ccc(cc2Cl)[C@H]1O` [VANCOMYCIN] showed an MIC of 0.004 µg/mL (≈ 0.00276 µM).

Turning to `CNC1CN(c2nc3c(cc2F)c(=O)c(C(=O)O)cn3C2CC2)CC/C1=N\OC` (stereo not drawn), the MIC is 4 µg/mL (≈ 9.92 µM) in assay [4]; 1 µg/mL (≈ 2.48 µM) in assay [5]; 2 µg/mL (≈ 4.96 µM) in assay [6]; under 0.001 µg/mL in assay [1]; under 0.001 µg/mL in assay [7]; 4 µg/mL (≈ 9.92 µM) in assay [2]. The MIC in assay [3] was under 0.001 µg/mL.

Turning to `CO/N=C1\CN(c2nc3c(cc2F)c(=O)c(C(=O)O)cn3C2CC2)CCC1N` (stereo not drawn), the MIC in assay [4] was 1 µg/mL (≈ 2.57 µM); in assay [5], 1 µg/mL (≈ 2.57 µM); in assay [6] it was 1 µg/mL (≈ 2.57 µM); in assay [1], 2 µg/mL (≈ 5.14 µM); in assay [7], 2 µg/mL (≈ 5.14 µM); in assay [2], 4 µg/mL (≈ 10.3 µM). In assay [3], this compound yielded an MIC of 2 µg/mL (≈ 5.14 µM).

For `CCCO/N=C1\CCN(c2nc3c(cc2F)c(=O)c(C(=O)O)cn3C2CC2)CC1NC` (stereo not drawn), the MIC was 8 µg/mL (≈ 18.5 µM) in assay [4]; 2 µg/mL (≈ 4.64 µM) in assay [5]; 8 µg/mL (≈ 18.5 µM) in assay [6]; 0.03 µg/mL (≈ 0.0695 µM) in assay [1]; 0.015 µg/mL (≈ 0.0348 µM) in assay [7]; 16 µg/mL (≈ 37.1 µM) in assay [2]. The compound further registered an MIC in assay [3] of 0.015 µg/mL (≈ 0.0348 µM).

On to `CCO/N=C1\CCN(c2nc3c(cc2F)c(=O)c(C(=O)O)cn3C2CC2)CC1N(C)C` (stereo not drawn), for which the MIC was 8 µg/mL (≈ 18.5 µM) in assay [4]; 1 µg/mL (≈ 2.32 µM) in assay [5]; 2 µg/mL (≈ 4.64 µM) in assay [6]; 0.015 µg/mL (≈ 0.0348 µM) in assay [1]; 0.002 µg/mL (≈ 0.00464 µM) in assay [7]; 1 µg/mL (≈ 2.32 µM) in assay [2]. This compound showed an MIC in assay [3] of 0.004 µg/mL (≈ 0.00927 µM).

`CCCO/N=C1\CCN(c2nc3c(cc2F)c(=O)c(C(=O)O)cn3C2CC2)CC1N(C)C` (stereo not drawn): the MIC in assay [4] was 16 µg/mL (≈ 35.9 µM); in assay [5], 2 µg/mL (≈ 4.49 µM); in assay [6] it was 16 µg/mL (≈ 35.9 µM); in assay [1] it was 0.5 µg/mL (≈ 1.12 µM); in assay [7], 0.125 µg/mL (≈ 0.281 µM); in assay [2] it was 2 µg/mL (≈ 4.49 µM). The compound also had an MIC in assay [3] of 0.25 µg/mL (≈ 0.561 µM).

With `CO/N=C1\CN(c2nc3c(cc2F)c(=O)c(C(=O)O)cn3C2CC2)CC1CN` (stereo not drawn) [GEMIFLOXACIN], the MIC in assay [4] was found to be 0.125 µg/mL (≈ 0.321 µM); in assay [5] it was 0.125 µg/mL (≈ 0.321 µM); in assay [6], 0.125 µg/mL (≈ 0.321 µM); in assay [1], 0.004 µg/mL (≈ 0.0103 µM); in assay [7], 0.004 µg/mL (≈ 0.0103 µM); in assay [2], 0.004 µg/mL (≈ 0.0103 µM). The MIC in assay [3] was determined as 0.004 µg/mL (≈ 0.0103 µM).

Consider `CCO/N=C1\CN(c2nc3c(cc2F)c(=O)c(C(=O)O)cn3C2CC2)CCC1NC` (stereo not drawn), for which the MIC in assay [4] was 4 µg/mL (≈ 9.58 µM); in assay [5], 0.06 µg/mL (≈ 0.144 µM); in assay [6] it was 1 µg/mL (≈ 2.4 µM); in assay [1], under 0.001 µg/mL; in assay [7], under 0.001 µg/mL; in assay [2], 2 µg/mL (≈ 4.79 µM). Besides, in assay [3], the MIC is under 0.001 µg/mL.

As to `CNC1CN(c2nc3c(cc2F)c(=O)c(C(=O)O)cn3C2CC2)CC/C1=N\OCc1ccccc1` (stereo not drawn), the MIC in assay [4] was 16 µg/mL (≈ 33.4 µM); in assay [5] it was 2 µg/mL (≈ 4.17 µM); in assay [6], 16 µg/mL (≈ 33.4 µM); in assay [1], 0.125 µg/mL (≈ 0.261 µM); in assay [7] it was 0.25 µg/mL (≈ 0.521 µM); in assay [2], 16 µg/mL (≈ 33.4 µM). The lowest concentration to inhibit growth in assay [3] (MIC) was 0.125 µg/mL (≈ 0.261 µM).

In the case of `CNC1CCN(c2nc3c(cc2F)c(=O)c(C(=O)O)cn3C2CC2)C/C1=N\OC` (stereo not drawn), the MIC was 1 µg/mL (≈ 2.48 µM) in assay [4]; 0.06 µg/mL (≈ 0.149 µM) in assay [5]; 1 µg/mL (≈ 2.48 µM) in assay [6]; under 0.001 µg/mL in assay [1]; under 0.001 µg/mL in assay [7]; 0.5 µg/mL (≈ 1.24 µM) in assay [2]. This compound gave an MIC in assay [3] of under 0.001 µg/mL.

With `CO/N=C1\CN(c2nc3c(cc2F)c(=O)c(C(=O)O)cn3C2CC2)CCC1NC1CC1` (stereo not drawn), the MIC in assay [4] turned out to be 16 µg/mL (≈ 37.3 µM); in assay [5] it was 1 µg/mL (≈ 2.33 µM); in assay [6], 16 µg/mL (≈ 37.3 µM); in assay [1], 0.015 µg/mL (≈ 0.0349 µM); in assay [7] it was 0.004 µg/mL (≈ 0.00931 µM); in assay [2], 2 µg/mL (≈ 4.66 µM). Besides, in assay [3], the MIC stood at 0.004 µg/mL (≈ 0.00931 µM).

As for `CCCO/N=C1\CN(c2nc3c(cc2F)c(=O)c(C(=O)O)cn3C2CC2)CCC1NC` (stereo not drawn), the MIC is 4 µg/mL (≈ 9.27 µM) in assay [4]; 0.06 µg/mL (≈ 0.139 µM) in assay [5]; 4 µg/mL (≈ 9.27 µM) in assay [6]; 0.06 µg/mL (≈ 0.139 µM) in assay [1]; 0.03 µg/mL (≈ 0.0695 µM) in assay [7]; 2 µg/mL (≈ 4.64 µM) in assay [2]. Also, it took 0.06 µg/mL (≈ 0.139 µM) to inhibit growth in assay [3] (MIC).

Consider `CO/N=C1\CCN(c2nc3c(cc2F)c(=O)c(C(=O)O)cn3C2CC2)CC1N(C)C` (stereo not drawn), for which the MIC turned out to be 8 µg/mL (≈ 19.2 µM) in assay [4]; 0.125 µg/mL (≈ 0.299 µM) in assay [5]; 1 µg/mL (≈ 2.4 µM) in assay [6]; 0.004 µg/mL (≈ 0.00958 µM) in assay [1]; 0.015 µg/mL (≈ 0.0359 µM) in assay [7]; 1 µg/mL (≈ 2.4 µM) in assay [2]. In assay [3], the MIC was determined as 0.015 µg/mL (≈ 0.0359 µM).

As for `CO/N=C1\CCN(c2nc3c(cc2F)c(=O)c(C(=O)O)cn3C2CC2)CC1NC1CC1` (stereo not drawn), the MIC in assay [4] is 16 µg/mL (≈ 37.3 µM); in assay [5], 8 µg/mL (≈ 18.6 µM); in assay [6] it was 16 µg/mL (≈ 37.3 µM); in assay [1] it was 0.015 µg/mL (≈ 0.0349 µM); in assay [7] it was 0.004 µg/mL (≈ 0.00931 µM); in assay [2] it was 2 µg/mL (≈ 4.66 µM). Besides, the MIC in assay [3] was determined as 0.004 µg/mL (≈ 0.00931 µM).

Take `CNC1CCN(c2nc3c(cc2F)c(=O)c(C(=O)O)cn3C2CC2)C/C1=N\OCc1ccccc1` (stereo not drawn): the MIC was 8 µg/mL (≈ 16.7 µM) in assay [4]; 0.5 µg/mL (≈ 1.04 µM) in assay [5]; 4 µg/mL (≈ 8.34 µM) in assay [6]; under 0.001 µg/mL in assay [1]; under 0.001 µg/mL in assay [7]; 2 µg/mL (≈ 4.17 µM) in assay [2]. This compound registered an MIC in assay [3] of under 0.001 µg/mL.

Source of the values: ChEMBL document CHEMBL1145415, “Synthesis and antibacterial activity of novel fluoroquinolones containing substituted piperidines” (2007).
